Consider 21 compounds from patent publication US9365522B2, “Pyrazole amide derivative” (AMGEN INC., priority 2015, dated 2016).

The target of this assay is T1, ligand binding domain of human ROR gamma (Homo sapiens, UniProt P51449).
T1 construct: NM_001001523; expressed in transfected cells; host or cells: HEK293T
T1 sequence (P51449 247-497 isoform P51449-2): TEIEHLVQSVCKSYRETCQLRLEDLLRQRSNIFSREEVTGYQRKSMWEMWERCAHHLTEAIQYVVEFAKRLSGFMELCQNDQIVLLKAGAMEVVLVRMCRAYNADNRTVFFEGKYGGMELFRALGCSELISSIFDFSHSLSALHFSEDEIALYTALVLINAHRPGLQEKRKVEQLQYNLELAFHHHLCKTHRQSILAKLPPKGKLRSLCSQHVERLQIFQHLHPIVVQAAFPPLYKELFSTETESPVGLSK
The assay can be described thus: ROR gamma reporter gene assay (GAL4-RORγ LBD luciferase, Dual-Glo). It is filed as cell-based. Particulars: HEK293T cells transfected with pM-ROR gamma, 8 concentrations 3.5 nM to 10.5 μM, 24 h incubation; read-out: result (pIC50, inhibition of RORγ transcriptional activity) (converted). The procedure, abridged: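 First, HEK293T cells are transfected with the GAL4–RORγ LBD construct, a 5×UAS luciferase reporter and a constitutive renilla control. Next, test compounds are added over eight concentrations (3.5 nM to 10.5 μM). After 24 h at 37 °C, Dual-Glo luminescence is measured and pIC50 fitted.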
For orientation: Reporter assays use an easily measured gene product as a stand-in for the process of interest.
Consider `CC1(C)[C@@H]2C[C@H](N(CC(=O)c3c(Cl)cc(Cl)cc3Cl)C(=O)c3cnn(C45CCC(C(=O)O)(CC4)CC5)c3C(F)(F)F)C[C@@H]21` [Example 241, 4-(4-(((1R,3r,5S)-6,6-dimethyl-3-bicyclo[3.1.0]hexanyl)-(2-oxo-2-(2,4,6-trichlorophenyl)ethyl)carbamoyl)-5-(trifluoromethyl)pyrazol-1-yl)bicyclo(2.2.2)octane-1-carboxylic acid], for which the IC50 was 5130 pM.

As to `CC1(C)CCC(N(CC(=O)c2c(Cl)cccc2C(F)(F)F)C(=O)c2cnn(C34CCC(C(=O)O)(CC3)CC4)c2C(F)(F)F)CC1` [Example 242, 4-(4-((2-(2-chloro-6-(trifluoromethyl)phenyl)-2-oxoethyl)-(4,4-dimethylcyclohexyl)carbamoyl)-5-(trifluoromethyl)pyrazol-1-yl)bicyclo[2.2.2]octane-1-carboxylic acid], the IC50 was 31600 pM.

Turning to `COc1cccc(Cl)c1C(=O)CN(C(=O)c1cnn(C23CCC(C(=O)O)(CC2)CC3)c1C(F)(F)F)C1CCC(C)(C)CC1` [Example 243, 4-(4-((2-(2-chloro-6-methoxyphenyl)-2-oxoethyl)-(4,4-dimethylcyclohexyl)carbamoyl)-5-(trifluoromethyl)pyrazol-1-yl)bicyclo[2.2.2]octane-1-carboxylic acid], the IC50 is 55000 pM.

For the compound `CC12CCC(CN(CC(=O)c3c(Cl)cc(F)cc3Cl)C(=O)c3cnn([C@H]4CC[C@](C)(C(=O)O)CC4)c3C(F)(F)F)(CC1)O2` [Example 244, trans-4-(4-((2-(2,6-dichloro-4-fluorophenyl)-2-oxoethyl)-((1-methyl-7-oxabicyclo[2.2.1]heptan-4-yl)methyl)carbamoyl)-5-(trifluoromethyl)pyrazol-1-yl)-1-methylcyclohexane-1-carboxylic acid], the IC50 is 6920 pM.

As for `CC(C)(C)CN(CC(=O)c1c(Cl)cc(F)cc1Cl)C(=O)c1cnn(C23CCC(C(=O)O)(CC2)CC3)c1C(F)(F)F` [Example 245, 4-(4-((2-(2,6-dichloro-4-fluorophenyl)-2-oxoethyl)-(2,2-dimethylpropyl)carbamoyl)-5-(trifluoromethyl)pyrazol-1-yl)bicyclo[2.2.2]octane-1-carboxylic acid], the IC50 was 8910 pM.

Consider `CC(C)(C)CN(CC(=O)c1c(Cl)cc(Cl)cc1Cl)C(=O)c1cnn(C23CCC(C(=O)O)(CC2)CC3)c1C(F)(F)F` [Example 246, 4-(4-(2,2-dimethylpropyl-(2-oxo-2-(2,4,6-trichlorophenyl)ethyl)carbamoyl)-5-(trifluoromethyl)pyrazol-1-yl)bicyclo[2.2.2]octane-1-carboxylic acid], for which the IC50 is 11500 pM.

Regarding `CC1(C)[C@@H]2C[C@H](N(CC(=O)c3c(Cl)cccc3C(F)(F)F)C(=O)c3cnn(C45CCC(C(=O)O)(CC4)CC5)c3C(F)(F)F)C[C@@H]21` [Example 247, 4-(4-((2-(2-chloro-6-(trifluoromethyl)phenyl)-2-oxoethyl)-((1R,3r,5S)-6,6-dimethyl-3-bicyclo[3.1.0]hexanyl)carbamoyl)-5-(trifluoromethyl)pyrazol-1-yl)bicyclo[2.2.2]octane-1-carboxylic acid], the IC50 is 32400 pM.

As for `COc1cccc(Cl)c1C(=O)CN(C(=O)c1cnn(C23CCC(C(=O)O)(CC2)CC3)c1C(F)(F)F)[C@H]1C[C@@H]2[C@H](C1)C2(C)C` [Example 248, 4-(4-((2-(2-chloro-6-methoxyphenyl)-2-oxoethyl)-((1R,3r,5S)-6,6-dimethyl-3-bicyclo[3.1.0]hexanyl)carbamoyl)-5-(trifluoromethyl)pyrazol-1-yl)bicyclo[2.2.2]octane-1-carboxylic acid], the IC50 is 21400 pM.

Regarding `CC1(C)CC(CN(CC(=O)c2c(Cl)cc(F)cc2Cl)C(=O)c2cnn([C@H]3CC[C@](C)(C(=O)O)CC3)c2C(F)(F)F)C1` [Example 249, trans-4-(4-((2-(2,6-dichloro-4-fluorophenyl)-2-oxoethyl)-((3,3-dimethylcyclobutyl)methyl)carbamoyl)-5-(trifluoromethyl)pyrazol-1-yl)-1-methylcyclohexane-1-carboxylic acid], the IC50 was < 3470 pM.

Regarding `CC1(C)CC(CN(CC(=O)c2c(Cl)cc(Cl)cc2Cl)C(=O)c2cnn([C@H]3CC[C@](C)(C(=O)O)CC3)c2C(F)(F)F)C1` [Example 250, trans-4-(4-((3,3-dimethylcyclobutyl)methyl-(2-oxo-2-(2,4,6-trichlorophenyl)ethyl)carbamoyl)-5-(trifluoromethyl)pyrazol-1-yl)-1-methylcyclohexane-1-carboxylic acid], the IC50 was < 3470 pM.

Regarding `CC1(C)CC(CN(CC(=O)c2c(Cl)cccc2C(F)(F)F)C(=O)c2cnn([C@H]3CC[C@](C)(C(=O)O)CC3)c2C(F)(F)F)C1` [Example 251, trans-4-(4-((2-(2-chloro-6-(trifluoromethyl)phenyl)-2-oxoethyl)-((3,3-dimethylcyclobutyl)methyl)carbamoyl)-5-(trifluoromethyl)pyrazol-1-yl)-1-methylcyclohexane-1-carboxylic acid], the IC50 was 6030 pM.

`COc1cccc(Cl)c1C(=O)CN(CC1CC(C)(C)C1)C(=O)c1cnn([C@H]2CC[C@](C)(C(=O)O)CC2)c1C(F)(F)F` [Example 252, trans-4-(4-((2-(2-chloro-6-methoxyphenyl)-2-oxoethyl)-((3,3-dimethylcyclobutyl)methyl)carbamoyl)-5-(trifluoromethyl)pyrazol-1-yl)-1-methylcyclohexane-1-carboxylic acid]: the IC50 was 10000 pM.

With `COc1cccc(Cl)c1C(=O)CN(CC(C)(C)C)C(=O)c1cnn([C@H]2CC[C@](C)(C(=O)O)CC2)c1C(F)(F)F` [Example 253, trans-4-(4-((2-(2-chloro-6-methoxyphenyl)-2-oxoethyl)-(2,2-dimethylpropyl)carbamoyl)-5-(trifluoromethyl)pyrazol-1-yl)-1-methylcyclohexane-1-carboxylic acid], the IC50 was 45700 pM.

As to `COc1cccc(Cl)c1C(=O)CN(C(=O)c1cnn([C@H]2CC[C@](C)(C(=O)O)CC2)c1C(F)(F)F)C1CCC(C)(C)CC1` [Example 255, trans-4-(4-((2-(2-chloro-6-methoxyphenyl)-2-oxoethyl)-(4,4-dimethylcyclohexyl)carbamoyl)-5-(trifluoromethyl)pyrazol-1-yl)-1-methylcyclohexane-1-carboxylic acid], the IC50 is 55000 pM.

On to `CC1(C)CC(CN(CC(=O)c2c(Cl)cc(Cl)cc2Cl)C(=O)c2cnn(C34CCC(C(=O)O)(CC3)CC4)c2C(F)(F)F)C1` [Example 256, 4-(4-((3,3-dimethylcyclobutyl)methyl-(2-oxo-2-(2,4,6-trichlorophenyl)ethyl)carbamoyl)-5-(trifluoromethyl)pyrazol-1-yl)bicyclo[2.2.2]octane-1-carboxylic acid], for which the IC50 was 6030 pM.

Turning to `COc1cccc(Cl)c1C(=O)CN(CC1CC(C)(C)C1)C(=O)c1cnn(C23CCC(C(=O)O)(CC2)CC3)c1C(F)(F)F` [Example 257, 4-(4-((2-(2-chloro-6-methoxyphenyl)-2-oxoethyl)-((3,3-dimethylcyclobutyl)methyl)carbamoyl)-5-(trifluoromethyl)pyrazol-1-yl)bicyclo[2.2.2]octane-1-carboxylic acid], the IC50 is 20000 pM.

For `CC1(C)CC(CN(CC(=O)c2c(Cl)cccc2C(F)(F)F)C(=O)c2cnn(C34CCC(C(=O)O)(CC3)CC4)c2C(F)(F)F)C1` [Example 258, 4-(4-((2-(2-chloro-6-(trifluoromethyl)phenyl)-2-oxoethyl)-((3,3-dimethylcyclobutyl)methyl)carbamoyl)-5-(trifluoromethyl)pyrazol-1-yl)bicyclo[2.2.2]octane-1-carboxylic acid], the IC50 was 6610 pM.

With `COc1cccc(Cl)c1C(=O)CN(CC1CCC(C)(C)CC1)C(=O)c1cnn([C@H]2CC[C@](C)(C(=O)O)CC2)c1C(F)(F)F` [Example 259, trans-4-(4-((2-(2-chloro-6-methoxyphenyl)-2-oxoethyl)-((4,4-dimethylcyclohexyl)methyl)carbamoyl)-5-(trifluoromethyl)pyrazol-1-yl)-1-methylcyclohexane-1-carboxylic acid], the IC50 is 117000 pM.

Take `CC12CCC(CN(CC(=O)c3c(Cl)cc(Cl)cc3Cl)C(=O)c3cnn([C@H]4CC[C@](C)(C(=O)O)CC4)c3C(F)(F)F)(CC1)O2` [Example 260, trans-4-(4-((1-methyl-7-oxabicyclo[2.2.1]heptan-4-yl)methyl-(2-oxo-2-(2,4,6-trichlorophenyl)ethyl)carbamoyl)-5-(trifluoromethyl)pyrazol-1-yl)-1-methylcyclohexane-1-carboxylic acid]: the IC50 was 6030 pM.

Regarding `Cc1cc(Cl)c(C(=O)CN(CC23CCC(C)(CC2)O3)C(=O)c2cnn(C34CCC(C(=O)O)(CC3)CC4)c2C(F)(F)F)c(Cl)c1` [Example 261, 4-(4-((2-(2,6-dichloro-4-methylphenyl)-2-oxoethyl)-((1-methyl-7-oxabicyclo[2.2.1]heptan-4-yl)methyl)carbamoyl)-5-(trifluoromethyl)pyrazol-1-yl)bicyclo[2.2.2]octane-1-carboxylic acid], the IC50 was 4570 pM.

On to `O=C(CN(CC12CCC(CC1)O2)C(=O)c1cnn([C@H]2CC[C@H](C(=O)O)CC2)c1C(F)(F)F)c1c(Cl)cncc1Cl` [Example 262, trans-4-(4-((2-(3,5-dichloropyridin-4-yl)-2-oxoethyl)-(7-oxabicyclo[2.2.1]heptan-4-ylmethyl)carbamoyl)-5-(trifluoromethyl)pyrazol-1-yl)cyclohexane-1-carboxylic acid], for which the IC50 is 40700 pM.
